Reference: patent US20230295200A1 (REGENTS OF THE UNIVERSITY OF MICHIGAN, priority 2022, published 2023)

Columns and labels:
[1] = target: T1, STAT5A (Homo sapiens, UniProt P42229); test: Fluorescence polarization (FP) binding assay, STAT5A; settings: FP competition, 5 nM fluorescein-labeled tracer, 200 nM protein, PBS pH7.4
T1 sequence (P42229 1-794): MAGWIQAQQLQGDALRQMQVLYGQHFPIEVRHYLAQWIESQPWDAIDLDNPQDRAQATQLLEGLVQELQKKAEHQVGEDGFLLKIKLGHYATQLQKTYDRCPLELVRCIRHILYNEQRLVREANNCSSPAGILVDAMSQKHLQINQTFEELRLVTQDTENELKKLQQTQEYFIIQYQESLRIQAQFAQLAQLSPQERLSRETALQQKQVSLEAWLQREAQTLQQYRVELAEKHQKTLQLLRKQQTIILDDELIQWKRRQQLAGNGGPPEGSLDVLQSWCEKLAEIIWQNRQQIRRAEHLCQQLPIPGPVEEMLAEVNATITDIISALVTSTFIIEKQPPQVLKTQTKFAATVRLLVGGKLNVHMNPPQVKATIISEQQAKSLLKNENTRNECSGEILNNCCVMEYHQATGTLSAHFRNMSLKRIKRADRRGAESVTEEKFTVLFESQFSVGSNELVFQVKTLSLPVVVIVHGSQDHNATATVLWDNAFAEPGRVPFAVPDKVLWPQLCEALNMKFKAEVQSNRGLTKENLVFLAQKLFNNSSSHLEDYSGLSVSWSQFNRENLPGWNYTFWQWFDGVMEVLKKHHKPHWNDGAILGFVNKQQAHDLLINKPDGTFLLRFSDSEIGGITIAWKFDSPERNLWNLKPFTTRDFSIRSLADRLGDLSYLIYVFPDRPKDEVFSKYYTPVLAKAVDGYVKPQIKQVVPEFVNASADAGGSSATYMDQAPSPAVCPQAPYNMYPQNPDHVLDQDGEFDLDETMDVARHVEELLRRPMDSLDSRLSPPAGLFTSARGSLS
Summary of the method: (§1)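 Fluorescence polarization is read after STAT5 or STAT6 protein (200 nM) and a fluorescein-labeled tracer (5 nM) equilibrate for 1 h at room temperature in DTT-containing PBS pH 7.4 with BGG and Tween-20. Inhibition constants are obtained by nonlinear curve fitting.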

[2] = target: T2, STAT6 protein (Homo sapiens, UniProt P42226); test: Fluorescence polarization (FP) binding assay, STAT6; settings: FP competition, 5 nM fluorescein-labeled tracer, 200 nM protein, PBS pH7.4; read-out: Binding STAT6
T2 sequence (P42226 1-847): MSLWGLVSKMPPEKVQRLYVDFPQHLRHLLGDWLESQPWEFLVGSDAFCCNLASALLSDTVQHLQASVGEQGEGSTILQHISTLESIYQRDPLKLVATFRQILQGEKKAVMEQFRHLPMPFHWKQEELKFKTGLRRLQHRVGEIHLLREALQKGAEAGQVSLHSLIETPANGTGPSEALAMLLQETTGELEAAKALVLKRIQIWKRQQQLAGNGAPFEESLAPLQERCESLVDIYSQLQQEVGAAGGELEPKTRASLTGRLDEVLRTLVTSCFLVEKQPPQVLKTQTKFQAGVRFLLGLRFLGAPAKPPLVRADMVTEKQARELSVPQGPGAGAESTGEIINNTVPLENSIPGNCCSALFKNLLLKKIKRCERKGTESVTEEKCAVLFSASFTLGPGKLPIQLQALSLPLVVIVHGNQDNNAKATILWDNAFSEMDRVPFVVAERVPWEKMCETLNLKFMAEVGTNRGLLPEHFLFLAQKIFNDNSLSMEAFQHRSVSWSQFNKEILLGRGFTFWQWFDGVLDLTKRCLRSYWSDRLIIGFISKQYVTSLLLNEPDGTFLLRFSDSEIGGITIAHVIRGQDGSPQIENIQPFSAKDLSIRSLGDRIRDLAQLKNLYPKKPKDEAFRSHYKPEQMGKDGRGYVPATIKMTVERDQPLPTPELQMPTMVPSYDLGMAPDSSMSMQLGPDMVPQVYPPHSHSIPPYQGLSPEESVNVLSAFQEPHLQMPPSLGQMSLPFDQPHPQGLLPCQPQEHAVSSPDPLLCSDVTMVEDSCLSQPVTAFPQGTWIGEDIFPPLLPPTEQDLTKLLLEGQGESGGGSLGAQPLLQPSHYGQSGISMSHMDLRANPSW
Summary of the method: as §1

Row | Compound | Ki [1] [µM] | Ki [2] [µM]
1 | CC(C)(C)[C@H](NC(=O)/C=C/c1ccc(C(F)(F)P(=O)(O)O)cc1)C(=O)N1CCC[C@H]1c1nc(Cc2ccccc2)cs1 [Compound 18, ((4-((E)-3-(((S)-1-((S)-2-(4-benzylthiazol-2-yl)pyrrolidin-1-yl)-3,3-dimethyl-1-oxobutan-2-yl)amino)-3-oxoprop-1-en-1-yl)phenyl)difluoromethyl)phosphonic acid] | > 10 | > 10
2 | CC(C)(C)[C@H](NC(=O)c1cc2cc(C(F)(F)P(=O)(O)O)ccc2[nH]1)C(=O)N1CCC[C@H]1c1nc(-c2ccccc2)cs1 [Compound 19, ((2-(((S)-3,3-dimethyl-1-oxo-1-((S)-2-(4-phenylthiazol-2-yl)pyrrolidin-1-yl)butan-2-yl)carbamoyl)-1H-indol-5-yl)difluoromethyl)phosphonic acid] | > 10 | 1 to 10
3 | CC(C)(C)[C@H](NC(=O)/C=C/c1ccc(C(F)(F)P(=O)(O)O)cc1)C(=O)N1CCC[C@H]1c1nc(-c2ccccc2)cs1 [Compound 20, ((4-((E)-3-(((S)-3,3-dimethyl-1-oxo-1-((S)-2-(4-phenylthiazol-2-yl)pyrrolidin-1-yl)butan-2-yl)amino)-3-oxoprop-1-en-1-yl)phenyl)difluoromethyl)phosphonic acid] | > 10 | > 10
4 | CC(C)(C)[C@H](NC(=O)c1cc2cc(C(F)(F)P(=O)(O)O)ccc2[nH]1)C(=O)N1CCC[C@H]1c1ncc(-c2ccccc2)s1 [Compound 21, ((2-(((S)-3,3-dimethyl-1-oxo-1-((S)-2-(5-phenylthiazol-2-yl)pyrrolidin-1-yl)butan-2-yl)carbamoyl)-1H-indol-5-yl)difluoromethyl)phosphonic acid] | > 10 | 1 to 10
5 | CC(C)(C)[C@H](NC(=O)/C=C/c1ccc(C(F)(F)P(=O)(O)O)cc1)C(=O)N1CCC[C@H]1c1ncc(-c2ccccc2)s1 [Compound 22, ((4-((E)-3-(((S)-3,3-dimethyl-1-oxo-1-((S)-2-(5-phenylthiazol-2-yl)pyrrolidin-1-yl)butan-2-yl)amino)-3-oxoprop-1-en-1-yl)phenyl)difluoromethyl)phosphonic acid] | > 10 | > 10
6 | O=C(N[C@@H](CC1CCCCC1)C(=O)N1CCC[C@H]1C(=O)N1CCc2ccccc2C1)c1cc2cc(C(F)(F)P(=O)(O)O)ccc2[nH]1 [Compound 23, ((2-(((S)-3-cyclohexyl-1-oxo-1-((S)-2-(1,2,3,4-tetrahydroisoquinoline-2-carbonyl)pyrrolidin-1-yl)propan-2-yl)carbamoyl)-1H-indol-5-yl)difluoromethyl)phosphonic acid] | 1 to 10 | 1 to 10
7 | O=C(/C=C/c1ccc(C(F)(F)P(=O)(O)O)cc1)N[C@@H](CC1CCCCC1)C(=O)N1CCC[C@H]1C(=O)N1CCc2ccccc2C1 [Compound 24, ((4-((E)-3-(((S)-3-cyclohexyl-1-oxo-1-((S)-2-(1,2,3,4-tetrahydroisoquinoline-2-carbonyl)pyrrolidin-1-yl)propan-2-yl)amino)-3-oxoprop-1-en-1-yl)phenyl)difluoromethyl)phosphonic acid] | > 10 | > 10
8 | CC(C)(C)[C@H](NC(=O)c1cc2cc(C(F)(F)P(=O)(O)O)ccc2[nH]1)C(=O)N1CCC[C@H]1c1ncc(Cc2ccccc2)s1 [Compound 25, ((2-(((S)-1-((S)-2-(5-benzylthiazol-2-yl)pyrrolidin-1-yl)-3,3-dimethyl-1-oxobutan-2-yl)carbamoyl)-1H-indol-5-yl)difluoromethyl)phosphonic acid] | 1 to 10 | > 10
9 | CC(C)(C)[C@H](NC(=O)/C=C/c1ccc(C(F)(F)P(=O)(O)O)cc1)C(=O)N1CCC[C@H]1c1ncc(Cc2ccccc2)s1 [Compound 26, ((4-((E)-3-(((S)-1-((S)-2-(5-benzylthiazol-2-yl)pyrrolidin-1-yl)-3,3-dimethyl-1-oxobutan-2-yl)amino)-3-oxoprop-1-en-1-yl)phenyl)difluoromethyl)phosphonic acid] | > 10 | > 10
10 | O=C(N[C@@H](Cc1ccncc1)C(=O)N1CCC[C@H]1C(=O)N1CCc2ccccc2C1)c1cc2cc(C(F)(F)P(=O)(O)O)ccc2[nH]1 [Compound 27, (difluoro(2-(((S)-1-oxo-3-(pyridin-4-yl)-1-((S)-2-(1,2,3,4-tetrahydroisoquinoline-2-carbonyl)pyrrolidin-1-yl)propan-2-yl)carbamoyl)-1H-indol-5-yl)methyl)phosphonic acid] | > 10 | 1 to 10
11 | O=C(NC(C(=O)N1CCC[C@H]1C(=O)N1CCc2ccccc2C1)C1CCNCC1)c1cc2cc(C(F)(F)P(=O)(O)O)ccc2[nH]1 (stereo partly drawn) [Compound 28, (difluoro(2-((2-oxo-1-(piperidin-4-yl)-2-((S)-2-(1,2,3,4-tetrahydroisoquinoline-2-carbonyl)pyrrolidin-1-yl)ethyl)carbamoyl)-1H-indol-5-yl)methyl)phosphonic acid] | > 10 | > 10
12 | O=C(/C=C/c1ccc(C(F)(F)P(=O)(O)O)cc1)NC(C(=O)N1CCC[C@H]1C(=O)N1CCc2ccccc2C1)C1CCNCC1 (stereo partly drawn) [Compound 29, (difluoro(4-((E)-3-oxo-3-((2-oxo-1-(piperidin-4-yl)-2-((S)-2-(1,2,3,4-tetrahydroisoquinoline-2-carbonyl)pyrrolidin-1-yl)ethyl)amino)prop-1-en-1-yl)phenyl)methyl)phosphonic acid] | > 10 | > 10
13 | CC(C)(C)[C@H](NC(=O)c1cc2cc(C(F)(F)P(=O)(O)O)ccc2[nH]1)C(=O)N1CCC[C@H]1C(=O)Nc1nc(-c2ccccc2)cs1 [Compound 30, ((2-(((S)-3,3-dimethyl-1-oxo-1-((S)-2-((4-phenylthiazol-2-yl)carbamoyl)pyrrolidin-1-yl)butan-2-yl)carbamoyl)-1H-indol-5-yl)difluoromethyl)phosphonic acid] | > 10 | > 10
14 | CC(C)(C)[C@H](NC(=O)c1cc2cc(C(F)(F)P(=O)(O)O)ccc2[nH]1)C(=O)N1CCC[C@H]1C(=O)Nc1ncc(-c2ccccc2)s1 [Compound 31, ((2-(((S)-3,3-dimethyl-1-oxo-1-((S)-2-((5-phenylthiazol-2-yl)carbamoyl)pyrrolidin-1-yl)butan-2-yl)carbamoyl)-1H-indol-5-yl)difluoromethyl)phosphonic acid] | 0.1 to 1 | > 10
15 | CN(C(=O)[C@@H]1CCCN1C(=O)[C@@H](NC(=O)c1cc2cc(C(F)(F)P(=O)(O)O)ccc2[nH]1)C(C)(C)C)C(c1ccccc1)c1ccccc1 [Compound 32, ((2-(((S)-1-((S)-2-(benzhydryl(methyl)carbamoyl)pyrrolidin-1-yl)-3,3-dimethyl-1-oxobutan-2-yl)carbamoyl)-1H-indol-5-yl)difluoromethyl)phosphonic acid] | > 10 | > 10
16 | CC(C)(C)[C@H](NC(=O)c1cc2cc(C(F)(F)P(=O)(O)O)ccc2[nH]1)C(=O)N1CCC[C@H]1c1ncc(-c2ccccc2)[nH]1 [Compound 33, ((2-(((S)-3,3-dimethyl-1-oxo-1-((S)-2-(5-phenyl-1H-imidazol-2-yl)pyrrolidin-1-yl)butan-2-yl)carbamoyl)-1H-indol-5-yl)difluoromethyl)phosphonic acid] | > 10 | > 10
